This is an account of results in patent US8828724B2, “Method for preparing cells for engraftment” (Institut National de la Sante et de la Recherche Medicale …, priority 2007, dated 2014).

Peptide text beside a SMILES is read from it.

The test system of data set [1] is BM-MNC. As to the kind of experiment: Apoptosis evaluation via observation of nuclear morphology. It counts as cell-based, mouse. Conditions: 100 μM, pre-treated or continued presence, 5 days of culture, FIG. 13. The method, then: BM-MNC were grown onto gelatin/vitronectin matrix for 5 days in EBM in the continued presence of TSP1 or the 4N1-1 and 4N1-2 peptides, or treated for the last 24 h only. […] Non adherent cells were eliminated and adherent cells fixed with PBS-PFA 4% followed by addition of DAPI (Di-aminidophenylindol, 0.01 mg/ml) that becomes fluorescent after integration between DNA bases. […] Experiments were repeated at least three times.
After observing increased BM-MNC adhesion following treatment with peptide 4N1-1, the inventors examined the extent of apoptosis triggered by peptide 4N1-1.

In data set [2] the test system is BM-MNC. As to the kind of experiment: Apoptosis evaluation via quantification of intact DNA content. In kind it is cell-based. Conditions: 50 μM for 10 or 120 min, culture up to 24 hours, FIG. 29. How it is done: BM-MNC were isolated and treated with 4N1-1 peptide for 10 or 120 min, washed with PBS and cultured in EBM onto gelatin/vitronectin matrix for up to 24 hours. Untreated fresh cells served as control for live cells. […] After treatment and culture, non adherent and adherent cells were harvested and analyzed separately, fixed with ice-cold ethanol 70% in PBS, and incubated for 45 min in PBS containing Triton X-100 (0.05%), propidium iodide (PI; 50 μg/ml) and RNase-A (100 μg/ml). PI becomes fluorescent after integration between DNA bases. […] Experiments were repeated three times.
The inventors examined the extent of apoptosis in BM-MNC treated with peptide 4N1-1 and 4N1-2, using a second method. BM-MNC were pre-treated with 4N1-1 or 4N1-2 (50 μM) for 10 or 120 min, and cultured in full EBM2 medium, with serum and growth factors for up to 24 hours, to allow potential apoptotic reactions to proceed (FIG. 29). […] After culture, adherent and non-adherent cells were harvested and analyzed separately.

In data set [3] the test system is BM-MNC. Briefly: BM-MNC adhesion onto gelatin/vitronectin or fibrin gels for 30 min after pre-treatment. Conditions: 2 h pre-treatment. In kind it is cell-based, mouse. The method, then: Tibias, femurs and humerus of C57BL/6 male mice were carefully dissected, bone marrow was extracted and dissociated, and bone marrow mononuclear cells (BM-MNC) were separated by differential centrifugation on Ficoll gradients (Histopaque-1083, Sigma), (2,000 r.p.m, 25 min). BM-MNC were then washed with PBS and pelleted (2,000 r.p.m, 10 min).
(§1) To evaluate the effects of TSP1 or peptides derived from its carboxyterminal sequence, 4N1-1 and 4N1-2, on cell adhesion onto gelatin/vitronectin, fibrin gels or activated SVEC monolayers, 2.10^6/ml BM-MNC or PBMC, or 10^6/ml HUCB-EPC were pretreated for 2 h at 37° C. in an incubator with 5% CO2, in the presence of TSP1 ([…]), or the 4N1-1 or 4N1-2 peptides (100 μM), or control BSA (1%), or with mouse monoclonal anti-human CD47 IgG1 B6H12 (40 μg/ml), or matched control isotype mouse IgG1 (40 μg/ml), before PBS washes and culture for the specified length of time. For adhesion experiments, supernatants were removed, adherent cells were gently washed with PBS. The number of adherent cells per high power field was counted in 3 to 5 fields per well using an inverted phase-contrast microscope at high magnification (×400).
(§2) Mouse BM-MNC and HUCB-EPC adhesion was evaluated in vitro. The effects of purified or recombinant platelet proteins, or peptide agonists of the CD47/IAP receptor was characterized. Two main approaches were used: • 1. Pre-incubation of the cells with platelet proteins for 2 h before measuring their adhesion on gelatin/vitronectin control matrix or fibrin gels for 30 min. • 2. Cell adhesion on gelatin/vitronectin control matrix or fibrin gels for 16 h in the presence of platelet proteins in solution.

The conditions of data set [4]: systemic injection of significant doses; cited from earlier work.
The subject of data set [5] is BM-MNC. Briefly: Endothelial differentiation of BM-MNC (Dil-Ac-LDL / BS1-lectin double labelling). It counts as cell-based, mouse. Conditions: 2 h pre-treatment, 5 days culture, FIG. 12. The method, then: BM-MNC were cultured onto gelatin/vitronectin in EBM medium for 5 days. After eliminating non adherent cells, EPC were identified through double-labelling for two endothelial characteristics: incorporation of Dil-labelled acetylated low density lipoproteins (Dil-Ac-LDL; 1 μg/ml, BioHarbor Products; red fluorescence) and binding of FITC-labelled BS1-lectin (1 μg/ml, Sigma; green fluorescence). Double fluorescence allowed the microscopic identification and counting of EPC in 3 to 5 fields per well (400× magnification). Experiments were repeated at least three times, and results expressed as percentages of EPC.
Following the previous observation that TSP1 and peptide 4N1-1 stimulate BM-MNC adhesion in vitro, the inventors measured the endothelial differentiation of treated BM-MNC. BM-MNC were cultured for 5 days, following a 2 h pre-treatment with recombinant or purified TSP1, or with peptides 4N1-1, 4N1-2, or CSVTCG (a peptide derived from the TSP1 sequence). EPC-differentiated BM-MNC were identified by fluorescence microscopy after double-labelling for Dil-Ac-LDL incorporation and BS1 lectin binding.

Data set [6] concerns BM-MNC. As to the kind of experiment: BM-MNC adhesion onto interleukin-1β-pre-activated murine endothelial monolayers. The note with it: 2 h pre-treatment; TSP1 10 μg/ml, 4N1-1 100 μM; 30 min adhesion, FIG. 9. In kind it is cell-based, mouse. How it is done:
SV40-transformed mouse lymph node endothelial cells (SVEC from ATCC), were grown in Dulbecco's Modified Eagle Medium (DMEM) supplemented with 20% FCS in 24 well plaques until they reached full confluency (7 days). SVEC monolayers were activated with 5 nM murine interleukin-1β (Calbiochem) for 2 h prior to cell-cell adhesion experiments.
as §1
BM-MNC were pre-treated for 2 h with recombinant or purified human TSP1 (10 μg/ml), or with peptide 4N1-1 (100 μM), and measured their adhesion after 30 min onto interleukin-1β-pre-activated murine endothelial monolayers. […]

The test system of a further data set is HUCB-EPC. As to the kind of experiment: HUCB-EPC adhesion onto gelatin/vitronectin or fibrin gels for 15 min after pre-treatment. Conditions: 2 h pre-treatment, 15 min adhesion, FIG. 8. In kind it is cell-based, Human. The method, then: Human umbilical cord blood (30-50 ml) was collected in sterile tubes containing heparin (15 UI/ml, Sanofi) following standard protocols in agreement with Hôpital Lariboisiére and Inserm ethical guidelines. PBMC were isolated via Ficoll gradient centrifugation (Histopaque-1077, Dominique Dutscher). To eliminate mature endothelial cells, mononuclear cells were seeded (6.10^6 cells/ml) in culture dishes (100×20 mm) at 37° C. with 5% CO2 for 16 h. Adherent cells were eliminated. Non-adherent cells were cultured and differentiated into Human umbilical cord blood-derived endothelial progenitor cells (HUCB-EPC) in 6-well plates (10^7 cells/well) on collagen type 1 matrix (Coll1; 90 μg/ml, Sigma) in M199 growth medium (Gibco) complete with L-glutamine, HEPES buffer (25 mM; Eurobio), antibiotics and antimycotics (penicillin 10000 units/ml, streptomycin 10,000 μg/ml, fongizone 25 μg/ml) and 20% FCS (Dominique Dutscher), as well as 10 ng/ml VEGF (R&D Systems).
as §1

Data set [7] deals with BM-MNC. Briefly: BM-MNC adhesion onto gelatin/vitronectin for 16 h with proteins in solution. In kind it is cell-based, mouse. Conditions: 16 h in presence of 100 μg/ml, FIG. 3. The method, then: as §2
BM-MNC were incubated for 16 h on gelatin/vitronectin matrix in the presence of PPP, recombinant TSP1 (100 μg/ml), or peptide 4N1-1 (100 μM) before adhesion was quantified through direct cell counts by phase-contrast microscopy. As reported in FIG. 3, TSP1 stimulated adhesion by over three fold compared to the gelatin/vitronectin control (+206.8%, p<0.05).

The mark [8] stands for this setting: 30 min adhesion, gelatin/vitronectin, FIG. 26.
[9] abbreviates: BM-MNC, 30 min adhesion, FIG. 1.

For `CSCC[C@H](NC(=O)[C@@H](NC(=O)[C@@H](NC(=O)[C@H](Cc1ccc(O)cc1)NC(=O)[C@H](Cc1ccccc1)NC(=O)[C@@H](N)CCCNC(=N)N)C(C)C)C(C)C)C(=O)N[C@@H](Cc1c[nH]c2ccccc12)C(=O)N[C@@H](CCCCN)C(=O)O` [4N1-1], the “apoptosis compared to BSA” value in the data set on BM-MNC [1] is reported as “did not stimulate apoptosis significantly”.

`CSCC[C@H](NC(=O)[C@@H](NC(=O)[C@@H](NC(=O)[C@H](Cc1ccc(O)cc1)NC(=O)[C@H](Cc1ccccc1)NC(=O)[C@@H](N)CCCNC(=N)N)C(C)C)C(C)C)C(=O)O` [4N1-2, RFYVVM, reference compound] (H-RFYVVM-OH): the “apoptosis compared to staurosporine or control, adherent and non-adherent cells” value with BM-MNC [2] was “did not stimulate apoptosis significantly”. The “apoptosis compared to BSA” value in the data set with BM-MNC [1] is “did not stimulate apoptosis significantly”.

Regarding “CSVTCG (TSP-1 fragment) [reference compound]”, the “inhibition of adhesion compared with BSA” value in the data set on BM-MNC [3] (30 min adhesion, gelatin/vitronectin, FIG. 7) is 21%.

For “FIRGGMYEGKK (7NGG) [mutated 7N3, reference compound]”, the “modulation of BM-MNC adhesion compared with BSA” value (“modulation … compared with BSA” for short) in the data set on BM-MNC [3] (setting [8]) is reported as “no significant modulation”.

On to FIRVVMYEGKK (7N3 peptide), for which the “modulation … compared with BSA” value in the data set with BM-MNC [3] (setting [8]) is listed as “stimulated BM-MNC adhesion significantly”.

With KRFYVVMWKK (4N1K peptide), in data set [4], the gross coagulation parameters result is listed as “does not modulate gross coagulation parameters” and the lethality result is on record as “not lethal”.

“RFYGGMWK (4NGG) [mutated 4N1-1, reference compound]”: in the data set with BM-MNC [3] (setting [8]), the “modulation … compared with BSA” value is “no significant modulation”.

In the case of “TSP1: recombinant or purified Thrombospondin-1, not specified which at b144”, in the data set on BM-MNC [3] (setting [9]), the “stimulation of adhesion on fibrin compared with BSA” value was “+74.0%” and the “stimulation of adhesion onto gelatin/vitronectin compared with BSA” value is “+160.6%”.

Take “leptin: recombinant human leptin (Biovision)”: in the data set with BM-MNC [3] (SDF1 100 ng/ml, EphB2-Fc 3 μg/ml, EBM2 50%, leptin 100 ng/ml, gelatin/vitronectin 30 min, FIG. 27), the “modulation … compared with BSA” value is listed as “moderate increase”.

For the compound “purified TSP1: Human purified Thrombospondin-1 prepared at Inserm Unit U553”, the “stimulation of BM-MNC adhesion onto gelatin/vitronectin compared with BSA” value in the data set on BM-MNC [3] (30 min adhesion, FIG. 7) is recorded as “+143.8%”. Further, in the data set on BM-MNC [5], the “stimulation of endothelial differentiation vs BSA” value is “+28.9%”. In addition, the “stimulation of adhesion onto endothelial monolayers compared with BSA” value in the data set with BM-MNC [6] is recorded as “+40.5%”. For the same compound, in the data set with HUCB-EPC, the “stimulation of HUCB-EPC adhesion onto fibrin compared with BSA” value is recorded as “+33.3%” and the “stimulation of HUCB-EPC adhesion onto gelatin-vitronectin compared with BSA” value was “+52.5%”.

Turning to “recombinant TSP1: Human recombinant Thrombospondin-1 produced by EMP-Genetech”, in the data set with BM-MNC [3] (30 min adhesion, FIG. 2), the “concentration at which maximal stimulation of adhesion was reached” value amounted to 20 µg/mL and the “concentration from which adhesion onto gelatin/vitronectin was stimulated significantly” value is no less than 5 µg/mL. The “stimulation of BM-MNC adhesion onto gelatin/vitronectin compared with BSA” value with BM-MNC [3] (30 min adhesion, FIG. 7) is “+65.6%”. Further, in the data set on BM-MNC [3] (at 20 μg/ml, FIG. 2), the “maximal stimulation of adhesion onto gelatin/vitronectin compared with BSA” value is recorded as “+179.3%”. Also, in the data set with BM-MNC [7], the “stimulation of adhesion compared to the gelatin/vitronectin control” value is given as “+206.8%”. Moreover, the “stimulation of endothelial differentiation vs BSA” value in the data set with BM-MNC [5] is given as “+28.0%”. The “stimulation of adhesion onto endothelial monolayers compared with BSA” value with BM-MNC [6] is “+34.2%”. In addition, in the data set with HUCB-EPC, the “stimulation of HUCB-EPC adhesion onto fibrin compared with BSA” value is on record as “+37.6%” and the “stimulation of HUCB-EPC adhesion onto gelatin-vitronectin compared with BSA” value is recorded as “+106.3%”.
